The nature of the data set: Aqueous solubility of apixaban. The class given is physicochemical. To be noted: aqueous medium, aqueous buffer; room temperature, pH 6.8.

One may read the solubility as how much of the substance goes into solution per volume.

In the case of `COc1ccc(-n2nc(C(N)=O)c3c2C(=O)N(c2ccc(N4CCCCC4=O)cc2)CC3)cc1` [apixaban, 1-(4-methoxyphenyl)-7-oxo-6-[4-(2-oxopiperidin-1-yl)phenyl]-4,5,6,7-tetrahydro-1H-pyrazolo[3.4-c]pyridine-3-carboxamide], the solubility is under 1 µg/mL.

Source of the values: patent US20170202826A1, “DOSAGE FORMS OF APIXABAN” (Pfizer Inc., priority 2009, published 2017).
